Measured values from patent US8440674B2, “Substituted pyrimidine compounds as RAF inhibitors and methods of use” (Amgen Inc., priority 2005, dated 2013).
Where two headings read alike, the source gives them in different places.

Assays:
[1] = tested on: A375 cells, a human melanoma cell line having the V600E mutant Braf; assay: B-Raf cell-based assay (ratio of phospho-ERK1/2 to total ERK1/2); settings: A-375, 1 h, P-ERK/total ERK, 60 minute incubation, read-out: IC50 for the inhibition of B-raf as measured by the cell-based assay
Protocol: A cell-based assay was optimized to assay the ability of compounds to inhibit Braf activity in a whole cell context. […] The cell-based assay quantifies the ratio of phospho-ERK1/2 to total ERK1/2 and can thereby assay the cellular inhibition of Braf kinase activity.
A375 cells are plated into 96 well plates and grown to confluence. The cells are then changed into starve media (DMEM/0.1% BSA) for 60 minutes. Compounds in DMSO dose curves are then diluted in starve media and added to cells. […] After a 60 minute incubation the cells are fixed for 20 minutes at room temperature in 4% formaldehyde with 0.1%Triton X-100, protease and phosphatase inhibitors in PBS. The cells are washed four times in PBS then blocked for 60 minutes using a one to one mix of Odyssey blocking buffer (Li-Cor Biosciences, Inc) and PBS. Primary antibodies (rabbit anti-phospho p42/p44 MAPK (P-ERK1/2) from Cell Signaling Technology and mouse anti-ERK2 from Santa Cruz Biotechnology) are diluted in blocking buffer, added to the cells and incubated overnight at 4° C. The cells are then washed four times in PBS/0.1% Tween-20. Secondary antibodies (anti-mouse IRDye 800CW from Rockland, Inc and anti-rabbit AlexaFlour680 from Molecular Probes) are diluted in blocking buffer/0.5% Tween and incubated on cells for 60 minutes. After 4 washes in PBS/0.1% Tween-20 the microplate is scanned on an Odyssey Infrared Imager (Li-Cor Bioscience) which can read the signal given by the two secondary antibodies on their respective channels. The ratio of P-ERK/total ERK is determined and IC50s generated using Excel-XLfit software.

recombinant HuBraf V600E = recombinant HuBraf V600E (Homo sapiens, UniProt P15056, V600E); assay: B-raf Homogenous Time Resolved Fluorescent (HTRF) kinase assay; format: biochemical; settings: substrate MEK1, 10 uM ATP; threshold lists; read-out: IC50 for the inhibition of B-raf as measured by the HTRF assay
Protocol: A Homogeneous Time Resolved Fluorescence (HTRF) kinase assay was established to assay the ability of compounds to inhibit human mutant Braf kinase activity on the substrate MEK1. […] The final concentration of the kinase reaction buffer is 50 mM Tris-HCL pH 7.5, 10 mM MgCl2, 0.5% glucose, 0.5 mM DTT, 0.01% BSA.
The detection reaction proceeds for one hour and is read on a RubyStar (BMG Labtech) counter. IC50s for the test compounds are generated using Excel-XLfit software.

recombinant HuBraf V600E, sequence (P15056 whole entry V600E): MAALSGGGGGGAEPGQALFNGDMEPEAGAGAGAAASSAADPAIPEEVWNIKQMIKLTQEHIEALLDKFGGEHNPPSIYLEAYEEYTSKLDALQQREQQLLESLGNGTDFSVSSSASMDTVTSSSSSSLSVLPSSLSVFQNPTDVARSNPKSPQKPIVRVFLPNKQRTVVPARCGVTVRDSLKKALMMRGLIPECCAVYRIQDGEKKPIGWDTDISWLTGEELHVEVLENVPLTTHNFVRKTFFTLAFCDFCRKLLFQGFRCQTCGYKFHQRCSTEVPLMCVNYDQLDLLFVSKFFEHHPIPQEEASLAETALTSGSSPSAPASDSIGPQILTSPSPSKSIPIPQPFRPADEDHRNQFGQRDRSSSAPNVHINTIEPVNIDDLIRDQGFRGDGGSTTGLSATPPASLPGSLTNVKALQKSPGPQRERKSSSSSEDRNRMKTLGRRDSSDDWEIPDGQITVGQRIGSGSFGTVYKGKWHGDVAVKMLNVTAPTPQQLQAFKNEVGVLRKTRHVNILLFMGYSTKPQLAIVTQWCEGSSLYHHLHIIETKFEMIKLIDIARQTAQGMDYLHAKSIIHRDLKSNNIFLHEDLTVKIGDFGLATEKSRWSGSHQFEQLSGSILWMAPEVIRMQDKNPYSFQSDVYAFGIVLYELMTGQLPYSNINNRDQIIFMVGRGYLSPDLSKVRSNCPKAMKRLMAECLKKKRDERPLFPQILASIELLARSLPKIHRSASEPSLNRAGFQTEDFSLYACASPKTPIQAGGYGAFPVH

Q: Which results are given for `CNc1ncc2cc(-c3c(C)ccc4c(Nc5cccc(OC(F)(F)F)c5)nn(C)c34)ccc2n1` [Example 65, 6-(1,6-dimethyl-3-((3-((trifluoromethyl)oxy)phenyl)amino)-1H-indazol-7-yl)-N-methyl-2-quinazolinamine]?
A: IC50 ([1]; threshold list): ≤ 500 nM; IC50 (recombinant HuBraf V600E): ≤ 250 nM

Q: With `CNc1cc(-c2cccnc2Nc2c(C)ccc3c(Nc4cccc(OC(F)(F)F)c4)nccc23)ncn1` [Example 68, 6-methyl-N^5-(3-(6-(methylamino)-4-pyrimidinyl)-2-pyridinyl)-N^1-(3-((trifluoromethyl)oxy)phenyl)-1,5-isoquinolinediamine] as the molecule, how does the IC50 ([1]; threshold list) read?
A: ≤ 500 nM

Q: And the IC50 (recombinant HuBraf V600E)?
A: ≤ 250 nM

Q: How did the IC50 ([1]; threshold list) turn out when `CNc1cc(-c2cccnc2Nc2c(C)ccc3c(Nc4ccc(OC)c(C(F)(F)F)c4)nccc23)ncn1` [Example 70, N^1-(4-methoxy-3-(trifluoromethyl)phenyl)-6-methyl-N^5-(3-(6-(methylamino)pyrimidin-4-yl)pyridin-2-yl)isoquinoline-1,5-diamine] was run?
A: ≤ 500 nM

Q: And the IC50 (recombinant HuBraf V600E)?
A: ≤ 500 nM

Q: `CNc1cc(-c2cccnc2Nc2c(C)ccc3c(Nc4ccc5c(c4)NCCC5(C)C)nccc23)ncn1` [Example 72, N^1-(4,4-dimethyl-1,2,3,4-tetrahydro-7-quinolinyl)-6-methyl-N^5-(3-(6-(methylamino)-4-pyrimidinyl)-2-pyridinyl)-1,5-isoquinolinediamine] was tested. Which IC50 ([1]; threshold list) did it give?
A: ≤ 500 nM

Q: And the IC50 (recombinant HuBraf V600E)?
A: ≤ 1000 nM

Q: Which results are given for `CNc1ncc2cc(-c3c(C)ccc4c(Nc5cccc(OC(C)C)c5)n[nH]c34)ccc2n1` [Example 78, N-methyl-6-(6-methyl-3-((3-((1-methylethyl)oxy)phenyl)amino)-1H-indazol-7-yl)-2-quinazolinamine]?
A: IC50 ([1]; threshold list): ≤ 500 nM; IC50 (recombinant HuBraf V600E): ≤ 250 nM

Q: With `CNc1ncc2cc(-c3c(C)ccc4c(Nc5ccc6c(c5)NCC6(C)C)nccc34)ccc2n1` [Example 79, 6-(1-((3,3-dimethyl-2,3-dihydro-1H-indol-6-yl)amino)-6-methyl-5-isoquinolinyl)-N-methyl-2-quinazolinamine] as the molecule, how does the IC50 ([1]; threshold list) read?
A: ≤ 500 nM

Q: What about the IC50 (recombinant HuBraf V600E) of the same molecule?
A: ≤ 250 nM

Q: Which results are given for `Cc1ccc2c(Nc3ccc4c(c3)NCC4(C)C)nccc2c1Nc1ncccc1-c1ccncn1` [Example 80, N^1-(3,3-dimethyl-2,3-dihydro-1H-indol-6-yl)-6-methyl-N^5-(3-(4-pyrimidinyl)-2-pyridinyl)-1,5-isoquinolinediamine]?
A: IC50 ([1]; threshold list): ≤ 500 nM; IC50 (recombinant HuBraf V600E): ≤ 250 nM

Q: `CNc1ncc2cc(-c3c(C)ccc4c(Nc5ccc6c(c5)NCC6(C)C)ncnc34)ccc2n1` [Example 81, N^4′-(3,3-dimethyl-2,3-dihydro-1H-indol-6-yl)-N^2,7′-dimethyl-6,8′-biquinazoline-2,4′-diamine] was tested. Which IC50 ([1]; threshold list) did it give?
A: ≤ 500 nM

Q: What about the IC50 (recombinant HuBraf V600E) of the same molecule?
A: ≤ 250 nM

Q: With `CNc1ncc2cc(-c3c(C)ccc4c(Nc5ccc(C)c(F)c5)nn(C)c34)ccc2n1` [Example 198] as the molecule, how does the IC50 ([1]; threshold list) read?
A: ≤ 500 nM

Q: And the IC50 ([1]; threshold lists)?
A: ≤ 1000 nM

Q: What about the IC50 (recombinant HuBraf V600E) of the same molecule?
A: ≤ 250 nM

Q: What does the source list for `CNc1ncc2cc(-c3c(C)ccc4c(Nc5ccc(-n6ccnc6)cc5)nn(C)c34)ccc2n1` [Example 204]?
A: IC50 ([1]; threshold list): ≤ 500 nM; IC50 ([1]; threshold lists): ≤ 1000 nM; IC50 (recombinant HuBraf V600E): ≤ 250 nM

Q: For `CNc1cc(-c2cccnc2Nc2c(C)ccc3c(Nc4cccc(C(F)(F)F)c4)ncnc23)ncn1` [Example 337, 7-methyl-N8-(3-(6-(methylamino)pyrimidin-4-yl)pyridin-2-yl)-N4-(3-(trifluoromethyl)phenyl)quinazoline-4,8-diamine], which IC50 ([1]; threshold lists) is on record?
A: ≤ 5000 nM

Q: And the IC50 (recombinant HuBraf V600E)?
A: ≤ 250 nM

Q: What does the source list for `CNc1cc(-c2cccnc2Nc2c(C)ccc3c(Nc4cccc(OC(F)(F)F)c4)ncnc23)ncn1` [Example 343]?
A: IC50 ([1]; threshold list): ≤ 500 nM; IC50 (recombinant HuBraf V600E): ≤ 250 nM

Q: Which results are given for `Cc1ccc(C(F)(F)F)cc1Nc1nccc2c(Nc3ncccc3-c3ncnc4[nH]ccc34)c(C)ccc12` [Example 346]?
A: IC50 ([1]; threshold lists): ≤ 5000 nM; IC50 (recombinant HuBraf V600E): ≤ 500 nM

Q: `CNc1cc(-c2cccnc2Nc2c(C)ccc3c(Nc4ccc(Cl)c(C)c4)nccc23)ncn1` [Example 352] was tested. Which IC50 ([1]; threshold lists) did it give?
A: ≤ 5000 nM

Q: What about the IC50 (recombinant HuBraf V600E) of the same molecule?
A: ≤ 250 nM

Q: `CNc1ncc2cc(-c3c(C)sc4c(Nc5ccc(OC)c(C(F)(F)F)c5)nccc34)ccc2n1` [Example 392, 6-(7-(4-methoxy-3-(trifluoromethyl)phenylamino)-2-methylthieno[2,3-c]pyridin-3-yl)-N-methylquinazolin-2-amine] was tested. Which IC50 ([1]; threshold list) did it give?
A: ≤ 500 nM

Q: What about the IC50 (recombinant HuBraf V600E) of the same molecule?
A: ≤ 250 nM

Q: For `CNc1ncc2cc(-c3c(C)sc4c(Nc5cccc(C(F)(F)F)c5)nccc34)ccc2n1` [Example 393, N-methyl-6-(2-methyl-7-(3-(trifluoromethyl)phenylamino)thieno[2,3-c]pyridin-3-yl)quinazolin-2-amine], which IC50 ([1]; threshold lists) is on record?
A: ≤ 5000 nM

Q: And the IC50 (recombinant HuBraf V600E)?
A: ≤ 250 nM

Q: For `CNc1ncc2cc(-c3c(C)ccc4c(Oc5cccc(C(F)(F)F)c5)nccc34)ccc2n1` [Example 395, N-methyl-6-(6-methyl-1-(3-(trifluoromethyl)phenoxy)isoquinolin-5-yl)quinazolin-2-amine], which IC50 ([1]; threshold list) is on record?
A: ≤ 500 nM

Q: And the IC50 (recombinant HuBraf V600E)?
A: ≤ 250 nM

Q: `CNc1ncc2cc(-c3c(C)ccc4c(Nc5cccc(C(F)(F)F)c5)nsc34)ccc2n1` [Example 398, N-methyl-6-(6-methyl-3-(3-(trifluoromethyl)phenylamino)benzo[d]isothiazol-7-yl)quinazolin-2-amine] was tested. Which IC50 ([1]; threshold list) did it give?
A: ≤ 500 nM

Q: And the IC50 (recombinant HuBraf V600E)?
A: ≤ 250 nM

Q: For `CNc1ncc2cc(-c3c(C)ccc4c(Nc5ccc(OC)c(C(F)(F)F)c5)nsc34)ccc2n1` [Example 399, 6-(3-(4-methoxy-3-(trifluoromethyl)phenylamino)-6-methylbenzo[d]isothiazol-7-yl)-N-methylquinazolin-2-amine], which IC50 ([1]; threshold list) is on record?
A: ≤ 500 nM

Q: What about the IC50 (recombinant HuBraf V600E) of the same molecule?
A: ≤ 250 nM

Q: What does the source list for `CNc1ncc2cc(-c3c(C)cnc4c(Nc5ccc(OC)c(C(F)(F)F)c5)nccc34)ccc2n1` [Example 410]?
A: IC50 ([1]; threshold list): ≤ 500 nM; IC50 (recombinant HuBraf V600E): ≤ 1000 nM
